Experimental data taken from PMC8397297 (ACS Chemical Neuroscience, 2021).
“Also recorded” adds a separate entry of the source.

How the values were obtained:
[1] = test system: paclitaxel-treated mice; experiment: paclitaxel-induced peripheral neuropathy, tactile allodynia (von Frey test); assay type: in vivo, mouse
Description: (§1) Before the in vivo tests, the test compounds were suspended in 1% Tween 80 (Baxter, Poland). The compounds were then administered intraperitoneally. […] The test compounds were administered only once daily on days 1 and 7 of oxaliplatin- or paclitaxel-induced neuropathy. In STZ-treated mice, test compounds were administered 21 days after STZ injection. Control mice used in oxaliplatin and paclitaxel NP models were injected with an appropriate amount of vehicle (0.9% saline). Oxaliplatin was purchased from Activate Scientific GmbH (Germany). Paclitaxel and STZ were purchased from Sigma-Aldrich (Poland).
(§2) Doses of both paclitaxel and STZ used for the induction of neuropathy were selected based on our previous research.[66],[67] To induce neuropathy, paclitaxel was used at a dose of 18 mg/kg. It was prepared by dissolving in ethanol (100% (v/v); Polskie Odczynniki Chemiczne, Gliwice, Poland) at 10% of the final desired volume and vortexed for 2 min. An equal volume of Cremophor EL (10% of the final volume) was then added, and the mixture was vortexed for the next 10 min. Prior to injection, ice-cold physiological saline (80% of the final volume) was added to make up a final volume and the solution was maintained on ice during dosing.[66] To induce type I diabetes, mice were intraperitoneally injected with STZ (a single injection of STZ, 200 mg/kg) dissolved in 0.1 N citrate buffer. Age-matched control mice received an equal volume of citrate buffer. Blood glucose level was measured 1 day before (referred to as “day 0”) and repeatedly 1, 2, and 3 weeks after STZ injection using a blood glucose monitoring system (Accu-Chek Active, Roche, France). Blood samples for measurement of glucose concentration were obtained from the tail vein of the mice. The animals were considered as diabetic when their blood glucose concentration exceeded 300 mg/dL,[68] and only these mice (diabetic mice) were used in subsequent pain tests.[67]
The ability of the test compounds to attenuate tactile allodynia caused by oxaliplatin, paclitaxel, and STZ was assessed using the von Frey test. For this purpose, 3 h after oxaliplatin or paclitaxel and 21 days after STZ injection, the predrug paw withdrawal threshold was measured for each mouse. Then, the test compounds were administered, and 1 h later, the postdrug paw withdrawal threshold was collected for each animal. This part of the experiment aimed to establish the effect of treatment on early phase (acute) pain hypersensitivity induced by cytotoxic drugs. Additionally, in the oxaliplatin model and the paclitaxel model, to assess the effect of test compounds on late phase tactile allodynia, 7 days later, measurements of the predrug and postdrug paw withdrawal thresholds were made in a similar manner to the measurements performed during early phase neuropathy. At this stage of the experiment, there was no additional oxaliplatin/paclitaxel administration.
An electronic von Frey unit (Bioseb, France) was used to assess the mechanical nociceptive threshold (tactile allodynia) in mice. This device has a single flexible filament that applies increasing force (from 0 to 10 g) against the plantar surface of the hind paw of each mouse. In the von Frey test, the paw withdrawal response of the animals automatically turns off the stimulus, and the mechanical pressure that evokes this response is recorded. On the day of the experiment, the mice were placed individually in test compartments with a wire mesh bottom and left there for 1 h of habituation. Subsequently, to obtain baseline values, each mouse was tested 3 times alternately in each hind paw. Then, the test compounds were administered, and 1 h later, 3 additional measurements were taken and averaged to obtain the mean postdrug values for each mouse.[69]

[2] = test system: paclitaxel-treated mice; experiment: paclitaxel-induced peripheral neuropathy, heat nociceptive threshold (hot plate test); assay type: in vivo, mouse; details: for effect on latency to pain reaction (heat), hot plate test: day of paclitaxel administration (paclitaxel-induced hypoalgesia); for effect on thermal nociceptive threshold, hot plate test: seven days after paclitaxel administration, i.p.
Description: as §1, §2
Thermal (heat) nociceptive threshold was assessed in the hot plate test as previously described.[67] First, baseline (predrug) latencies to pain reaction were established for each mouse. Then, the mice were treated intraperitoneally with either the test compound or vehicle. Sixty minutes later the animals were placed on the hot plate apparatus again (hot/cold plate, Bioseb, France). This apparatus has an electrically heated surface and is supplied with a temperature-controller that maintains the temperature at 55 °C. The time until the animal licked its hind paws or jumped was recorded by means of a stop-watch. In this assay a cutoff time was established (60 s) to avoid tissue damage, and the mice not responding within 60 s were removed from the apparatus and assigned a score of 60 s.

[3] = test system: STZ-treated mice; experiment: diabetic STZ-induced peripheral neuropathy, tactile allodynia (von Frey test); assay type: in vivo, mouse; details: 21 days after STZ, i.p., doses 10 and 30 mg/kg
Description: as §1
Doses of both paclitaxel and STZ used for the induction of neuropathy were selected based on our previous research.[66],[67] To induce neuropathy, paclitaxel was used at a dose of 18 mg/kg. […] Blood glucose level was measured 1 day before (referred to as “day 0”) and repeatedly 1, 2, and 3 weeks after STZ injection using a blood glucose monitoring system (Accu-Chek Active, Roche, France). […]
The ability of the test compounds to attenuate tactile allodynia caused by oxaliplatin, paclitaxel, and STZ was assessed using the von Frey test. For this purpose, 3 h after oxaliplatin or paclitaxel and 21 days after STZ injection, the predrug paw withdrawal threshold was measured for each mouse. […]

[4] = test system: STZ-treated mice; experiment: diabetic STZ-induced peripheral neuropathy, heat hyperalgesia (hot plate test); assay type: in vivo, mouse; details: i.p.
Description: as §1
Doses of both paclitaxel and STZ used for the induction of neuropathy were selected based on our previous research.[66],[67] To induce neuropathy, paclitaxel was used at a dose of 18 mg/kg. It was prepared by dissolving in ethanol (100% (v/v); Polskie Odczynniki Chemiczne, Gliwice, Poland) at 10% of the final desired volume and vortexed for 2 min. […] Blood glucose level was measured 1 day before (referred to as “day 0”) and repeatedly 1, 2, and 3 weeks after STZ injection using a blood glucose monitoring system (Accu-Chek Active, Roche, France). […]
Thermal (heat) nociceptive threshold was assessed in the hot plate test as previously described.[67] […] The time until the animal licked its hind paws or jumped was recorded by means of a stop-watch. […]

[5] = HepG2 hepatoma cell-based hepatotoxicity assay (MTS); details: human, HepG2 hepatoma cells; 25 μM, 72 h, control 1% DMSO in culture media; read-out: HepG2 cell viability compared to the control
Description: To investigate the safety of compounds 2RS,4RS-39c, 50a, and 56a, a HepG2 hepatoma cell-based hepatotoxicity assay was used. Compounds were tested at six concentrations (0.1–100 μM).
Hepatotoxicity and cytotoxicity were estimated according to previously described protocols[62] using the hepatoma HepG2 (ATCC HB-8065) and human embryonic kidney HEK-293 (ATCC CRL1573) cell lines, respectively. In brief, cells were seeded in 96-well plates at a density of 0.7 × 10^4 and cultured at 37 °C in an atmosphere containing 5% CO2. Next, the compounds were added and investigated in quadruplicate at concentrations ranging from 0.1 to 100 μM for 72 h. The antiproliferative drug DX was used as the reference. The CellTiter 96 AQueous nonradioactive cell proliferation assay (MTS) purchased from Promega (Madison, WI, USA) was used for the determination of cell viability. The absorbance at 492 nm was measured using an EnSpire microplate reader (PerkinElmer, Waltham, MA, USA).

[6] = day 7 after paclitaxel injection, 30 mg/kg i.p., 30 mg/kg
[7] = day 7 after paclitaxel injection, lower dose (10 mg/kg) i.p.
[8] = day of paclitaxel administration, 10 and 30 mg/kg i.p.

Row | Structure (SMILES) | effect on mechanical nociceptive threshold, von Frey test [1, 6] | effect on mechanical nociceptive threshold, von Frey test [1, 7] | effect on mechanical nociceptive threshold, von Frey test [1, 8] | effect on latency to pain reaction (heat), hot plate test ([2]; 30 mg/kg i.p.) | effect on thermal nociceptive threshold, hot plate test [2] | effect on mechanical nociceptive threshold (tactile allodynia), von Frey test [3] | effect on heat nociceptive threshold, hot plate test [4] | viability at 72 h, 25 µM [5] [%] | effect on latency to pain reaction (heat), hot plate test ([2]; 10 mg/kg i.p.)
1 | CN(CCON=C(c1ccccc1)c1ccccc1)C(CCN)C(=O)NCc1ccccc1Cl (stereo not shown) [Compound 50a, 4-Amino-N-[(2-chlorophenyl)methyl]-2-[(2-{[(diphenylmethylidene)amino]oxy}ethyl)(methyl)amino]butanamide] | elevated mechanical nociceptive threshold; also recorded: able to reduce tactile allodynia | not effective | neither 50a nor 56a at doses 10 and 30 mg/kg was able to elevate the mechanical nociceptive threshold | reduced latency to pain reaction | did not reveal the effect of paclitaxel and compounds 50a and 56a on the thermal nociceptive threshold | effective only at the dose of 30 mg/kg | neither 50a nor 56a was effective | – | –
2 | CN(CCC=C1c2ccccc2CCc2ccccc21)C(CO)C(=O)NCc1ccccc1 (stereo not shown) [Compound 56a, N-Benzyl-2-((3-(10,11-dihydro-5H-dibenzo[a,d][7]annulen-5-ylidene)propyl)(methyl)amino)-3-hydroxypropanamide] | elevated mechanical nociceptive threshold; also recorded: able to reduce tactile allodynia | not effective | neither 50a nor 56a at doses 10 and 30 mg/kg was able to elevate the mechanical nociceptive threshold | reduced latency to pain reaction | did not reveal the effect of paclitaxel and compounds 50a and 56a on the thermal nociceptive threshold | effective only at the dose of 30 mg/kg | neither 50a nor 56a was effective | 100 | reduced latency to pain reaction
